Experimental data from patent publication US20240374546A1, “USES AND METHODS FOR PROMOTING INCREASED MITOCHONDRIAL MASS AND FUNCTION” (Brightseed, Inc., priority 2022, published 2024).

Tests used:
[1] = tested on: succinate dehydrogenase (SDHA); assay: Western blot, mouse liver, SDHA; assay type: in vivo; conditions: HFD+NCT vs HFD
Procedure: (§1) Mouse liver extracts were prepared by incubation in RIPA buffer (Invitrogen) containing protease inhibitors (Calbiochem, San Diego, CA). Protein was quantified by BCA assay (Thermo Scientific). Protein ([…] for cytochrome C) was separated on 12% or 16% Tri-Glycine gels (Invitrogen) and transferred to Immobilon P membrane (0.2 μm pore size, Millipore). After 1 hour in phosphate-buffered saline-Tween (PBST) with 3% milk, membranes were incubated with antibodies to PPARGC1A(PGC1α) (Cat #NBP1-04676, Novus, 1:1000), SDHA XP (Cat #11998, Cell Signaling 1:1000), or Cytochrome C (Cat #4280, Cell Signaling 1:500), followed by secondary antibody conjugated to horseradish peroxidase (1:5000, Jackson Immune or Cell Signaling). […] After detection, membrane was incubated with Ponceau S solution (Sigma) for 1 hr for normalization to loaded protein.

[2] = tested on: fatty acid oxidation (FAO); assay: Fatty acid oxidation assay in liver lysate; assay type: in vivo, mouse; conditions: HFD+NCT vs HFD
Procedure: FAO in liver lysate was measured according to manufacturer's instructions using a calorimetric assay kit (Cat #E-141, Biomedical Research Service Centre, State University of New York, Buffalo, NY).
The large weight difference between the HFD and HFD+NCT groups in conjunction with decreased subcutaneous and hepatic adiposity was striking. There are only two routes of fat elimination; in the stool by malabsorption, which it was ruled out (FIG. 1E) and by oxidation. Thus, it was hypothesized that NCT was inducing an increase in FAO. Quantification of FAO was done using an assay that measures NADH by the conversion of iodonitrotetrazolium (INT) to INT-Formazan mediated by the NADH-requiring enzyme diaphorase. Performing the assay in the presence and absence of added octanoyl-CoA, which is converted through fatty acid β-oxidation to acetyl-CoA with conversion of NAD+ to NADH, provides specificity for FAO. The level of fatty acid oxidation is determined as the INT-formazan level in the presence of octanoyl CoA minus the level in the absence of octanoyl CoA.

VDAC1 = assay: VDAC-1 immunostaining of liver sections; assay type: in vivo, mouse; conditions: HFD+NCT vs HFD
Procedure: Frozen liver sections were permeabilized using 0.3% Triton-X and incubated in antigen retrieval solution (Antigen retrieval citrate, Biogenex) at sub-boiling temperature for 10 min. Subsequently, sections were incubated with blocking buffer containing 5% normal donkey serum (Jackson Immuno Research) followed by incubation overnight at 4° C. with mouse anti-HNF4α monoclonal antibody (1:800, Cat #PP-H1415-00, R&D Systems), rabbit polyclonal anti-VDAC antibody (1:400, cat #PA1-954A, Invitrogen) and cleaved caspase3 antibody (1:500, cat #9664, Cell Signaling). Sections were washed and incubated for 1 hour at room temperature with anti-mouse secondary antibody coupled with Alexa fluor 488 (1:400, Invitrogen) and antirabbit secondary antibody coupled with rhodamine red. Nuclei were visualized by counterstaining with DAPI (40,6-diamidino-2-phenylindole, Sigma Aldrich). Slides were mounted using fluorescence mounting medium and images were obtained at 40× magnification using an Olympus IX71 fluorescence microscope. Fluorescence intensity of HNF4α-stained nuclei and VDAC stained mitochondria was calculated using MetaMorph TL software (version 7.6.5.0, Olympus). Fold change was calculated by normalizing to values from mice fed NC.

cytochrome C mRNA = assay: qPCR primary human hepatocytes, cytochrome C mRNA; assay type: cell-based; conditions: NCT 5, 15, 40 μM
Procedure: Experiments with primary human hepatocytes were performed by CN-Bio (Cambridge, UK). Briefly, primary human hepatocytes (PHHs), human Kupffer cells (HKs) and human stellate cells (HSCs) were seeded onto CN-Bio's PhysioMimix LC12 MPS culture plates at 6×10^5 cells for PHHs and 6×10^4 cells for HKs and HSCs in 1.6 ml of CN-Bio's HEP-lean media with 5% FCS. Throughout the experiment the cells were maintained at a flow rate of 1 μl/s. After 24 hours (Day 1) of seeding, the media was changed to HEP-lean media and the cells were incubated until day 4 to allow the cells to form microtissues. At day 4 post seeding, media was changed to HEP-fat media and treated with DMSO or NCT (5, 15, 40 μM). Media was replaced on days 6 and 8. Cells were harvested on day 10 for RNA extraction and culture media was collected for ELISA analysis.
(§2) Total RNA was isolated from liver tissues and primary human hepatocytes using Trizol (Invitrogen). cDNA was amplified using 3 μg of total RNA using qScript cDNA SuperMix (Quanta BioSciences, Beverly, MA, USA). Quantitative real time PCR (RT-PCR) analysis was performed using SYBR® Select Master Mix (Applied Biosystems) and an ABI 7900HT thermal cycler (Applied Biosystems, Thermo Fisher Scientific). Ct values were normalized to 18s rRNA and are expressed as fold change over samples from mice fed NC or cultured human hepatocytes without NCT.

[3] = previous two-week IP administration, obese mice; cited from earlier work
PPARγ mRNA = assay: qPCR mouse liver, PPARγ mRNA; assay type: in vivo; conditions: HFD+NCT vs HFD; to the level of normal chow
Procedure: as §2

cytochrome C = assay: Western blot, mouse liver, cytochrome C; assay type: in vivo; conditions: HFD+NCT vs HFD
Procedure: as §1

SDHA mRNA = assay: qPCR mouse liver, SDHA mRNA; assay type: in vivo; conditions: HFD+NCT vs HFD
Procedure: as §2

Q: For `O=C(/C=C/c1ccc(O)c(O)c1)NCCc1ccc(O)cc1` [NCT, N-transcaffeoyltyramine], which “hepatic succinate dehydrogenase protein level (HFD-induced decrease)” value [1] is on record?
A: Its value is “reversed”.

Q: What about the “body weight less than mice fed HFD” value (HFD+NCT (4000 ppm NCT in chow, approx. 400 mg/kg/d) vs HFD, end of experiment at 10 weeks) of the same compound?
A: The value was ~10 gm.

Q: What about the “week at which lower body weight became evident” value (HFD+NCT vs HFD) of the same compound?
A: The value was 5 week.

Q: And the “difference in body weight” value (HFD+NCT vs HFD, 10 weeks)?
A: The value was 35-40%.

Q: What about the liver redness (HFD+NCT vs HFD, 10 weeks) of the same compound?
A: Its liver redness is “redder livers”.

Q: And the “obesity (appearance)” value (HFD+NCT vs HFD, 10 weeks)?
A: The value was “markedly less obese”.

Q: What about the “epididymal fat pad weight” value (HFD+NCT vs HFD, end of study, normalized to body weight) of the same compound?
A: The value was “no change”.

Q: What about the liver weight (HFD+NCT vs HFD, normalized to body weight) of the same compound?
A: The liver weight was “lower liver weight”.

Q: What about the liver size (HFD+NCT vs HFD, photographs) of the same compound?
A: The liver size was “reduction of liver size”.

Q: And the “physical activity or other behaviors” value (mouse, in vivo)?
A: The value was “no discernible difference”.

Q: What about the “FAO activity in the presence of octanoyl CoA” value [2] of the same compound?
A: Its value is “increase”.

Q: And the “baseline activity in the absence of octanoyl CoA” value [2]?
A: Its value is “increase”.

Q: What about the “overall FAO activity (+octanoyl CoA minus −octanoyl CoA)” value [2] of the same compound?
A: Its value is “unchanged”.

Q: What about the “VDAC1 expression (HFD-induced decrease)” value (VDAC1) of the same compound?
A: The value was “substantial reversal”.

Q: And the “cytochrome C mRNA in primary human hepatocytes” value (cytochrome C mRNA)?
A: Its value is “but not cytochrome C”.

Q: And the body weight [3]?
A: Its body weight is “no effect on body weight”.

Q: What about the hepatic steatosis [3] of the same compound?
A: Its hepatic steatosis is “decreased hepatic steatosis”.

Q: And the “PPARγ expression in mouse liver” value (PPARγ mRNA)?
A: The value was “dramatically reduced”.

Q: What about the “hepatic cytochrome C protein level (HFD-induced decrease)” value (cytochrome C) of the same compound?
A: The value was “reversed”.

Q: What about the “SDHA mRNA in mouse liver” value (SDHA mRNA) of the same compound?
A: Its value is “increased”.
